Measured values: patent publication EP1375483A1, “6-CHLORO-3-PYRIDYLMETHYLPROPYLAMINE DERIVATIVES, PREPARATION PROCESS THEREOF AND BACTERICIDES” (KUREHA KAGAKU KOGYO KABUSHIKI KAISHA, priority 2001, dated 2001)
Like-named read-outs stand apart in the source and are kept apart here.

What was measured:
cucumber powdery mildew = assay: Test of control effect on cucumber powdery mildew (Test Example 2); format: in vivo; conditions: wettable powder 100 mg/l, 100 liters/10 a, sprinkled on cucumbers (Sagamihanpakufushinari) before inoculation, examined 9th to 14th day after inoculation; for pest or weed control at 100 µg/mL: Cucumis sativus
Procedure: The wettable powders formulated by using each of the compounds I-1 to 27 according to the present invention and the comparative compounds (a) to (d), (m-1) and (m-3) were each diluted and suspended with water to a predetermined concentration (100 mg/l), the suspension was sprinkled over the first to the second leaf period cucumbers (variety: "[…]") cultivated by using a square plastic pot (size: 6. 4 cm x 6. 4 cm) in a rate of 100 liters/10 a (ares). After the sprinkled leaves were air-dried, the spores were inoculated over the leaves by sprinkling the same with a brush from an infected leaf, a disease was contracted in a glass house (temperature: 20 to 24°C, relative humidity: 20 to 70 RH). On the 9th to 14th day after the inoculation, the infection degree was examined according to the following scale and the control value of each compound was calculated by the following calculation equation 2: [table] (Equation 2) Control value = (1 - infection degree of treated zone/infection degree of untreated zone) x 100 (%) [formula] The control values of each compound are shown in Table 9.

Botrytis cinerea = assay: Antifungal activity test against various pathogenic fungi, hypha extension on PDA plates (Test Example 3); format: cell-based; conditions: for inhibition at 1.6 ppm: read-out: Growth Inhibition B.c (1.6)
wheat powdery mildew [1] = assay: Permeable mobility fungicidal effect test in leaf section of wheat powdery mildew (Test Example 4); format: in vivo
Procedure: In the test example 4, permeable mobility fungicidal effect test was performedon the leaf section of wheat powdery mildew with regard to the compounds I-1 to 27 according to the present invention and the comparative compounds (a) to (d), and (m-1) to (m-3) with the method described later. The compound in the form of a wettable powder obtained by Formulation 2 or the like was diluted and suspended with water to a predetermined concentration (200mg/l), and 0.5 µl of the suspension was applied to a 2 to 3 cm leaf portion from the root of the three leaves of the 4th to 4.5th leaf period wheat (variety: Abukumawase) cultured by using a square plastic pot (size: 6.4 cm x 6.4 cm). After these wheat leaves were subject to still standing in a glass house (temperature: 20 to 24C, relative humidity: 20 to 70 RH) for one day, the spores of wheat powdery mildew were inoculated over the leaves by sprinkling the same with a brush from an infected leaf, a disease was contracted in the same glass house. The length of a non-contracted area generated from the applied portion to the direction of the leaf top was measured, and a relative mobility to the compound (m-2) was calculated with the following calculation […] by using the comparative compound (m-2) as a standard compound. (Equation 4) Relative mobility = (Length of non-contracted area in each chemical section (cm)/Length of non-contracted area of compound (m-2) (cm)) [formula]

wheat powdery mildew [2] = assay: Test of control effect on wheat powdery mildew (Test Example 1); format: in vivo; conditions: wettable powder 125 mg/l, 100 liters/10 a, sprinkled on wheat seedlings (Nourin 64) before inoculation, examined 9th to 14th day after inoculation; for pest or weed control at 125 µg/mL: Triticum aestivum
Procedure: Wettable powders were prepared from compounds of the present invention I-1 to I-27 and comparative compounds (a) to (d) , (m-1) and (m-3). The obtained wettable powder was diluted and suspended with water to provide the predetermined concentration (125 mg/l), and was sprinkled onto seedlings of wheat (variety: "Nourin 64") at the first to the second leaf period which were cultivated using square plastic pots (size: 6.4 cm x 6.4 cm) in a rate of 100 liters/10 a (ares). After drying the sprinkled leaves with air, a suspension of wheat powdery mildew spores taken from infected leaves was inoculated by spraying onto the sprinkled leaves. They were supervised in a green house (temperature: 20 to 24°C, relative humidity: 20 to 70 RH). On the 9th to 14th day after the inoculation, the infection degree was examined according to the following scale and the control value of each compound was calculated by the following calculation equation 1. [table] (Equation 1) Control value = (1 - infection degree of treated zone/infection degree of untreated zone) x 100 (%) [formula] The control values of each compound are shown in Table 8.

Rhynchosporium secalis = assay: Antifungal activity test against various pathogenic fungi, hypha extension on PDA plates (Test Example 3); format: cell-based; conditions: read-out: Growth Inhibition R.s (100)
Pyricularia oryzae = assay: microbe, parasite or virus in culture; format: cell-based; conditions: read-out: Growth Inhibition P.o (12.5)
Leptosphaeria nodorum = assay: Antifungal activity test against various pathogenic fungi, hypha extension on PDA plates (Test Example 3); format: cell-based; conditions: Parastagonospora nodorum, read-out: Growth Inhibition L.n (0.8)
Pyrenophora graminea = assay: as above; format: cell-based; conditions: read-out: Growth Inhibition P.g (12.5)
Venturia inaequalis = assay: as above; format: cell-based; conditions: read-out: Growth Inhibition V.i (3.2)
Microdochium nivale = assay: as above; format: cell-based; conditions: read-out: Growth Inhibition M.n (3.2)
Septoria tritici = assay: as above; format: cell-based; conditions: Zymoseptoria tritici, read-out: Growth Inhibition S.t (100)
[3] = system: Pseudocercosporella herpotrichoides; assay: as above; format: cell-based; conditions: Oculimacula yallundae, read-out: Growth Inhibition P.h (25)
[4] = 1.6 ppm in PDA culture medium, cultured 1 to 7 days
[5] = length of non-contracted area relative to compound (m-2), 0.5 µl of 200 mg/l suspension applied to wheat leaf (Abukumawase), inoculated after one day
[6] = 100 ppm in PDA culture medium, cultured 1 to 7 days
[7] = Leptosphaeria nodorum, 0.8 ppm in PDA culture medium, cultured 1 to 7 days
[8] = 12.5 ppm in PDA culture medium, cultured 1 to 7 days
[9] = 3.2 ppm in PDA culture medium, cultured 1 to 7 days
[10] = Septoria tritici, 100 ppm in PDA culture medium, cultured 1 to 7 days

## CC(Cc1cccc(C(F)(F)F)c1)CN(C)Cc1ccc(Cl)nc1 (centres unmarked) [(a), 6-chloro-N-methyl-[2-methyl-3-(3-trifluoromethylphenyl)propyl]-3-pyridylmethylamine]
Cucumber powdery mildew
  pest or weed control at 100 µg/mL: 50%
Botrytis cinerea; [4]
  inhibition at 1.6 ppm: 20 to 40%
Wheat powdery mildew [1]; [5]
  Relative Mobility: 1
Wheat powdery mildew [2]
  pest or weed control at 125 µg/mL: 70%

## CC(Cc1cccc(OC(F)(F)F)c1)CN(C)Cc1ccc(Cl)nc1 (centres unmarked) [(b), 6-chloro-N-methyl-[2-methyl-3-(3-trifluoromethoxyphenyl)propyl]-3-pyridylmethylamine]
Cucumber powdery mildew
  pest or weed control at 100 µg/mL: 60%
Botrytis cinerea; [4]
  inhibition at 1.6 ppm: 40 to 70%
Wheat powdery mildew [1]; [5]
  Relative Mobility: 3
Wheat powdery mildew [2]
  pest or weed control at 125 µg/mL: 80%

## CC(Cc1cccc(Cl)c1Cl)CN(C)Cc1ccc(Cl)nc1 (centres unmarked) [(c-1), 6-chloro-N-[3-(2,3-dichlorophenyl)-2-methylpropyl]-N-me thyl-3-pyridylmethylamine]
Cucumber powdery mildew
  pest or weed control at 100 µg/mL: 0%
Botrytis cinerea; [4]
  inhibition at 1.6 ppm: 20 to 40%
Wheat powdery mildew [1]; [5]
  Relative Mobility: 1
Wheat powdery mildew [2]
  pest or weed control at 125 µg/mL: 40%

## CC(Cc1ccccc1Cl)CN(C)Cc1ccc(Cl)nc1 (centres unmarked) [(c-2), 6-chloro-N-[3-(2-chlorophenyl)-2-methylpropyl]-N-methyl-3-pyridylmethylamine, reference compound]
Rhynchosporium secalis; [6]
  inhibition at 100 ppm: 20 to 40%
Pyricularia oryzae
  inhibition at 12.5 ppm: 40 to 70%
Leptosphaeria nodorum; [7]
  inhibition at 0.8 ppm: 40 to 70%
Cucumber powdery mildew
  pest or weed control at 100 µg/mL: 0%
Botrytis cinerea; [4]
  inhibition at 1.6 ppm: 20 to 40%
Pyrenophora graminea; [8]
  inhibition at 12.5 ppm: 20 to 40%
Venturia inaequalis; [9]
  inhibition at 3.2 ppm: 20 to 40%
Microdochium nivale; [9]
  inhibition at 3.2 ppm: 20 to 40%
Wheat powdery mildew [1]; [5]
  Relative Mobility: 1
Wheat powdery mildew [2]
  pest or weed control at 125 µg/mL: 40%

## CC(Cc1cccc(Cl)c1)CN(C)Cc1ccc(Cl)nc1 (centres unmarked) [(c-3), 6-chloro-N-[3-(3-chlorophenyl)-2-methylpropyl]-N-methyl-3-pyridylmethylamine]
Cucumber powdery mildew
  pest or weed control at 100 µg/mL: 0%
Botrytis cinerea; [4]
  inhibition at 1.6 ppm: 20 to 40%
Wheat powdery mildew [1]; [5]
  Relative Mobility: 1
Wheat powdery mildew [2]
  pest or weed control at 125 µg/mL: 50%

## CC(Cc1cccc(F)c1)CN(C)Cc1ccc(Cl)nc1 (centres unmarked) [(c-4), 6-chloro-N-[3-(3-fluorophenyl)-2-methylpropyl]-N-methyl-3-pyridylmethylamine, reference compound]
Rhynchosporium secalis; [6]
  inhibition at 100 ppm: 20 to 40%
Pyricularia oryzae
  inhibition at 12.5 ppm: 40 to 70%
Leptosphaeria nodorum; [7]
  inhibition at 0.8 ppm: 40 to 70%
Cucumber powdery mildew
  pest or weed control at 100 µg/mL: 0%
Botrytis cinerea; [4]
  inhibition at 1.6 ppm: < 20%
Pyrenophora graminea; [8]
  inhibition at 12.5 ppm: 20 to 40%
Venturia inaequalis; [9]
  inhibition at 3.2 ppm: 20 to 40%
Microdochium nivale; [9]
  inhibition at 3.2 ppm: 20 to 40%
Wheat powdery mildew [1]; [5]
  Relative Mobility: 1
Wheat powdery mildew [2]
  pest or weed control at 125 µg/mL: 10%

## CC(Cc1ccc2c(c1)OCO2)CN(C)Cc1ccc(Cl)nc1 (centres unmarked) [(d), 6-chloro-N-[2-methyl-3-(3,4-methylenedioxyphenyl)propyl]-N-methyl-3-pyridylmethylamine]
Cucumber powdery mildew
  pest or weed control at 100 µg/mL: 0%
Botrytis cinerea; [4]
  inhibition at 1.6 ppm: < 20%
Wheat powdery mildew [1]; [5]
  Relative Mobility: 1
Wheat powdery mildew [2]
  pest or weed control at 125 µg/mL: 10%

## Cc1ccc(CC(C)CN(C)Cc2ccc(Cl)nc2)cc1C (centres unmarked) [(m-1), 6-chloro-N-[3-(3,4-dimethylphenyl)-2-methylpropyl]-N-me thyl-3-pyridylmethylamine]
Cucumber powdery mildew
  pest or weed control at 100 µg/mL: 10%
Botrytis cinerea; [4]
  inhibition at 1.6 ppm: 20 to 40%
Wheat powdery mildew [1]; [5]
  Relative Mobility: 1
Wheat powdery mildew [2]
  pest or weed control at 125 µg/mL: 10%

## CC(Cc1ccc(C(C)(C)C)cc1)CN(C)Cc1ccc(Cl)nc1 (centres unmarked) [(m-2), N-[3-(4-t-butylphenyl)-2-methylpropyl]-6-chloro-N-methy 1-3-pyridylmethylamine]
Wheat powdery mildew [1]; [5]
  Relative Mobility: 1

## COc1cccc(CC(C)CN(C)Cc2ccc(Cl)nc2)c1 (centres unmarked) [(m-3), 6-chloro-N-[3-(3-methoxyphenyl)-2-methylpropyl]-N-methy 1-3-pyridylmethylamine]
Cucumber powdery mildew
  Control Value: 0%
Botrytis cinerea; [4]
  Growth Inhibition B.c (1.6): 1 (Hypha extension inhibition rate of less than 20%)
Wheat powdery mildew [1]; [5]
  Relative Mobility: 1
Wheat powdery mildew [2]
  Control Value: 0%

## CC(Cc1ccc(C(F)(F)F)c(F)c1)CN(C)Cc1ccc(Cl)nc1 (centres unmarked) [Compound I-9, 6-chloro-N-[3-(3-fluoro-4-trifluoromethylphenyl)-2-methylpropyl]-N-methyl-3-pyridylmethylamine]
Cucumber powdery mildew
  pest or weed control at 100 µg/mL: 100%
Botrytis cinerea; [4]
  inhibition at 1.6 ppm: 70 to 90%
Wheat powdery mildew [1]; [5]
  Relative Mobility: 3
Wheat powdery mildew [2]
  pest or weed control at 125 µg/mL: 100%
Septoria tritici; [10]
  inhibition at 100 ppm: 70 to 90%

## CC(Cc1ccc(C(F)(F)F)c(F)c1F)CN(C)Cc1ccc(Cl)nc1 (centres unmarked) [Compound I-10]
Rhynchosporium secalis
  inhibition at 100 ppm: 70 to 90%
Pyricularia oryzae
  inhibition at 12.5 ppm: 70 to 90%
Leptosphaeria nodorum
  inhibition at 0.8 ppm: 70 to 90%
[3]
  inhibition at 25 ppm: > 90%
Cucumber powdery mildew
  Control Value: 100%
Botrytis cinerea
  inhibition at 1.6 ppm: > 90%
Pyrenophora graminea
  inhibition at 12.5 ppm: 70 to 90%
Venturia inaequalis
  inhibition at 3.2 ppm: 70 to 90%
Microdochium nivale
  inhibition at 3.2 ppm: 70 to 90%
Wheat powdery mildew [1]; 24 h, 200 ug/mL
  Relative Mobility: 3
Wheat powdery mildew [2]
  Control Value: 100%
Septoria tritici
  inhibition at 100 ppm: 70 to 90%

## CC(Cc1ccc(OC(F)(F)F)cc1)CN(C)Cc1ccc(Cl)nc1 (centres unmarked) [Compound I-12, 6-chloro-N-methyl-N-[3-(4-trifluoromethoxyphenyl)-2-methylpropyl]-3-pyridylmethylamine]
Rhynchosporium secalis; [6]
  inhibition at 100 ppm: > 90%
Pyricularia oryzae
  inhibition at 12.5 ppm: 70 to 90%
Leptosphaeria nodorum; [7]
  inhibition at 0.8 ppm: > 90%
[3]; Pseudocercosporella herpotrichoides, 25 ppm in PDA culture medium, cultured 1 to 7 days
  inhibition at 25 ppm: > 90%
Cucumber powdery mildew
  pest or weed control at 100 µg/mL: 100%
Botrytis cinerea; [4]
  inhibition at 1.6 ppm: 70 to 90%
Pyrenophora graminea; [8]
  inhibition at 12.5 ppm: 70 to 90%
Venturia inaequalis; [9]
  inhibition at 3.2 ppm: 70 to 90%
Microdochium nivale; [9]
  inhibition at 3.2 ppm: > 90%
Wheat powdery mildew [1]; [5]
  Relative Mobility: 10
Wheat powdery mildew [2]
  pest or weed control at 125 µg/mL: 100%
Septoria tritici; [10]
  inhibition at 100 ppm: 70 to 90%

## CC(Cc1ccc(F)c(OC(F)(F)F)c1)CN(C)Cc1ccc(Cl)nc1 (centres unmarked) [Compound I-16]
Leptosphaeria nodorum
  inhibition at 0.8 ppm: > 90%
Cucumber powdery mildew
  Control Value: 100%
Botrytis cinerea
  inhibition at 1.6 ppm: 70 to 90%
Wheat powdery mildew [1]; 24 h, 200 ug/mL
  Relative Mobility: 9
Wheat powdery mildew [2]
  Control Value: 100%
